Reference: patent US20240285553A1, “METHODS TO MODULATE MITOPHAGY WITH SREBP SIGNALING PATHWAY ACTIVATORS” (THE TRUSTEES OF INDIANA UNIVERSITY, priority 2021, published 2024)
“Also recorded” adds a separate entry of the source.

Columns and labels:
PAEC / ECs = experiment: Immunofluorescence microscopy of Tom20 and lysosomal marker LAMP1 (mitophagy); format: cell-based, human; conditions: for mitophagy by immunofluorescence (Tom20/Lamp1): ECs
From the text: Immunofluorescence Microscopy. Cells were fixed with 4% Formaldehyde (Electron Microscopy Sciences, #C993M24) and permeabilized in the presence of 0.1% Triton X-100 (Sigma). Full-length SREBP1 was stained using mouse monoclonal antibody from Santa Cruz Biotechnology (Cat #sc-365513). Whereas nuclear SREBP1 was detected using antibody from Novus biological (Cat #NB100-2215). […] Tom20 and LAMP1 antibodies were purchased from Cell Signaling (Cat #42406S and 15665S, respectively). Images were captured on an inverted fluorescent microscope (Leica).
(§1) First, degradation of a mitochondrial marker (TOM20) was evaluated as a bio-chemical marker of mitophagy induction.
Fixed cells were stained with Tom20 and Lamp1 and the fluorescence images were captured on a fluorescence microscope.

[1] = system: pulmonary arterial endothelial cells (PAECs); experiment: Western blot of mitochondrial marker TOM20 as measure of mitophagy; format: cell-based, human; conditions: for Tom20 levels (mitophagy): ECs / PAEC
From the text: (§2) Western blot. Cell lysates were resolved on a SDS PAGE pre-cast gel (Invitrogen) and resolved proteins were transferred on to a PVDF membrane for further detection of proteins using specific antibodies. Antibodies for SREBP1 were purchased from Santa Cruz Biotechnology (Cat #sc-365513) and Novus biological (Cat #NB100-2215). SCD antibody was purchased from Santa Cruz Biotechnology (Cat #sc-58420). Tom20 and LAMP1 antibodies were purchased from Cell Signaling (Cat #42406S and 15665S, respectively).
as §1

[2] = system: laser-induced CNV in mice; experiment: Laser-induced choroidal neovascularization (CNV) mouse model; format: in vivo; conditions: 20 mg/kg for seven days
Procedure: The eye offers an opportune model to study vascular pathology. The laser-induced choroidal neovascularization (CNV)) mouse model is used to study pathologic exudative angiogenesis as a major contributor to age-related macular degeneration (AMD). To test the protective effects of NCEH1 blockade, CNV was induced in two groups of mice that are exposed to either vehicle or 20 mg/kg of JW480 for seven days (n=12 each). […] Cumulatively, these mice studies provide evidence for the therapeutic use of JW480 in pathological CV conditions.

SREBP1 [3] = experiment: Immunofluorescence of SREBP1 nuclear accumulation; format: cell-based, human; conditions: ECs, IF
From the text: Immunofluorescence Microscopy. Cells were fixed with 4% Formaldehyde (Electron Microscopy Sciences, #C993M24) and permeabilized in the presence of 0.1% Triton X-100 (Sigma). Full-length SREBP1 was stained using mouse monoclonal antibody from Santa Cruz Biotechnology (Cat #sc-365513). Whereas nuclear SREBP1 was detected using antibody from Novus biological (Cat #NB100-2215). Mitophagy was confirmed by staining mitochondrial Tom20 and lysosomal marker LAMP1. Tom20 and LAMP1 antibodies were purchased from Cell Signaling (Cat #42406S and 15665S, respectively). Images were captured on an inverted fluorescent microscope (Leica).
NCEH1 knockdown experiments. NCEH1 was depleted using siRNA pool from Dharmacon or Lentiviral shRNA from Sigma. NCEH1 depletion was confirmed on a Western blot or by immunofluorescence assay.
Although pharmacological inhibition of NCEH1 promoted nuclear accumulation of SREBP1, genetic evidence further supports these observations. To this end, ECs were transfected with control or siNCEH1 siRNA and localization of SREBP1 or NCEH1 was captured on IF microscope.

SREBP1 [4] = experiment: Western blot of SREBP1, SCD and NCEH1 (SREBP1 activation); format: cell-based, human; conditions: for SCD (SREBP1 target) levels / SREBP1 levels (non-cleaved; decrease indicates cleavage and activation): ECs / PAEC; for SCD (SREBP1 target) levels / SREBP1 levels (non-cleaved; decrease indicates cleavage and activation) / NCEH1 levels: western blot
From the text: as §2, with “respectively). […]” for “respectively).”

[5] = molecular target: T1, NCEH1-phosphatidylserine interactions (Homo sapiens, UniProt Q6PIU2); experiment: Dot blot membrane strip assay of NCEH1 binding to phosphatidylserine; conditions: purified NCEH1 protein on lipid membrane strip, in vitro
T1 sequence (Q6PIU2 1-408): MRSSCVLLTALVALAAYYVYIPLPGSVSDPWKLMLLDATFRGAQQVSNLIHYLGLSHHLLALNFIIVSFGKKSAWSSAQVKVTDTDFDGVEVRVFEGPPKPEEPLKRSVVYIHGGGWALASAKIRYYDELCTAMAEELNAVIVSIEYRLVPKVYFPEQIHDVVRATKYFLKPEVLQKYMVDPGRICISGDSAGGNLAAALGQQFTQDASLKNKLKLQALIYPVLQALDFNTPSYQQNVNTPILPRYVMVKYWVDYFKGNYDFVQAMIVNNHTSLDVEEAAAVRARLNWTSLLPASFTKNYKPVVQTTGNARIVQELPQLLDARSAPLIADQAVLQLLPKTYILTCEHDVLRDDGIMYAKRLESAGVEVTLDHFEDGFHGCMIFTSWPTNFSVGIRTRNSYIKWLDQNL
Procedure: Membranes having the specified compounds were incubated with purified NCEH1 protein and the membrane was developed with NCEH1 antibody. […] ECs were treated with papuamide and cell extracts were blotted with indicated antibodies.

[6] = system: myocardial infarction in mice; experiment: Myocardial infarction (MI) mouse model, ligation of the left coronary artery; format: in vivo
Procedure: Ligation of the left coronary artery is a well-accepted mouse model of myocardial infarction (MI), associated with high mortality (>70% in lwk). […] Mice were treated with vehicle or 20 mg/kg JW480 (IP, n=6 males & 6 females) for five days and subjected to an MI.

ECs = experiment: Transmission electron microscopy for mitophagy; format: cell-based, human; conditions: 10 uM propranolol, 10 uM R-propranolol or 0.1 uM JW480 for 12 hours
Procedure: Transmission Electron Microscopy. […] Thin sections from these fixed cell blocks were visualized on Tecnai Spirit (ThermoFisher) TEM Microscope. Images captured were analyzed.
TEM evidence. […] ECs exposed to these drugs were fixed and the images were captured on a TEM.

SREBP1-NCEH1 complex = molecular target: T2, SREBP1-NCEH1 complex (Homo sapiens, UniProt Q6PIU2); experiment: Immunoprecipitation of endogenous SREBP1-NCEH1 complex; format: cell-based; conditions: ECs, vs vehicle
T2 construct: endogenous in cells; host or cells: cultured endothelial cells (ECs)
T2 sequence (Q6PIU2 1-408): T1 sequence (Q6PIU2 1-408)
Procedure: Immunoprecipitation Assay. In determining endogenous SREBP1-NCEH1 complex formation, cultured endothelial cells were treated with IP lysis buffer (Pierce Cat #87787). SREBP1 complex was captured using SREBP1 antibody from Santa Cruz Biotechnology (Cat #sc-365513) and resolved on a SDS PAGE. Complex formation with NCEH1 was detected by blotting with NCEH1 antibodies (Sigma Cat #HPA026888). To map the domain of SREBP1 that binds to NCEH1, HA tagged full-length SREBP1 or C-terminal regulatory domain alone were co-expressed along with Flag tagged NCEH1 in HEK293 cells. SREBP proteins were captured on HA antibodies (Cell Signaling) and blotted with Flag antibodies (Sigma).

SREBP1 pathway = experiment: RNA sequencing and pathway analysis of propranolol-treated ECs; format: cell-based, human; conditions: ECs treated with propranolol
From the text: SREBP1 is a key transcription factor that promotes lipid synthesis upon activation. Normally, SREBP1 protein is retained in the endoplasmic reticulum by high levels of cholesterol. When the cholesterol levels drop, SREBP1 protein gets translocated to the Golgi where it is cleaved, and the transcriptional activation portion of this protein gets translocated to the nucleus. Subsequently, SREBP1 activates a transcription program of genes involved in lipid synthesis. RNAseq data was generated to study mechanisms of propranolol-mediated PAEC mitophagy induction. […] ECs were treated with propranolol and the total RNA isolated from the cells were subjected to high through-put RNA sequencing.

MCT-induced PAH in rats = experiment: Rat MCT (monocrotaline) model of PAH; format: in vivo
Procedure: Rat MCT model of PAH. SD rats were given one dose of MCT injection to induce pulmonary hypertension. […] Rats were anesthetized and RVSP recorded.
Rats were injected with MCT to develop PAH in a well-established 4 week rodent model of the disease.

HF-PH mice = experiment: High-fat diet AKR/J HF-PH mouse model; format: in vivo; conditions: 4 weeks, implanted mini osmotic pump, vs vehicle
From the text: FIG. 14: Using a mouse model fed a high-fat diet, AKR/J mice develop obesity, insulin resistance, heart failure with preserved ejection fraction, and pulmonary hypertension and are designated as “HF-PH mice”.
Using a mouse model fed a high-fat diet (Research Diets, New Brunswick, NJ) for 16-20 weeks, AKR/J mice (Jackson Laboratories, Bar Harbor, ME) develop obesity, insulin resistance, heart failure with preserved ejection fraction, and pulmonary hypertension. (Meng, et al., 2017; Arwood, et al., 2019).

[7] = donor (non-PAH control)-derived PAEC / normal control ECs

CCN(CC)CCO[C@H]1CC[C@@]2(C)C(=CC[C@@H]3[C@@H]2CC[C@]2(C)C(=O)CC[C@@H]32)C1.Cl [U18666A]
mitophagy by immunofluorescence (Tom20/Lamp1) (PAEC / ECs): induce mitophagy

COCCc1ccc(OCC(O)CNC(C)C)cc1 (stereo not drawn) [metoprolol]
Tom20 levels (mitophagy) [1]: failed to promote mitophagy

CC(C)c1ccccc1OC(=O)NCCc1ccc2ccccc2c1 [JW480]
pathologic CNV [2]: inhibited pathologic CNV | retinal vessel leakage [2]: significantly reduced retinal vessel leakage | nuclear translocation of SREBP1 (SREBP1 [3]): promoted nuclear translocation of SREBP1 | mitophagy by immunofluorescence (Tom20/Lamp1) (PAEC / ECs): Tom20 was mobilized to lysosome | SCD (SREBP1 target) levels (SREBP1 [4]): elevated | SREBP1 levels (non-cleaved; decrease indicates cleavage and activation) (SREBP1 [4]): reduce SREBP1 levels | SCD (SREBP1 target) levels (SREBP1 [4]; listed as NCEH1): sufficient to activate SREBP1 target SCD | NCEH1 levels (SREBP1 [4]; ECs): higher | NCEH1-phosphatidylserine interaction [5]: disrupts NCEH1-phosphatidylserine interactions | intracellular lipid droplets (TEM) ([6]; JW480-treated mice): increased intracellular lipid droplets | survival after MI ([6]; mice, 20 mg/kg IP for five days before MI): significantly improved survival | Tom20 levels (mitophagy) [1]: lower | Tom20 levels (mitophagy) ([1]; listed as NCEH1): reduced the levels of Tom20 | mitophagy by TEM (bilipid membrane formation around mitochondria) (ECs): promoted mitophagy

CC(C)NCC(O)COc1cccc2ccccc12 (racemic) [propranolol]
nuclear translocation of SREBP1 (SREBP1 [3]): promoted nuclear translocation of SREBP1 | mitophagy by immunofluorescence (Tom20/Lamp1) (PAEC / ECs): induce mitophagy; also recorded: Tom20 was mobilized to lysosome | TOM20/Lamp1 co-staining (PAEC / ECs; propranolol treated PAH patient-derived PAEC): reduced TOM20/Lamp1 co-staining | SCD (SREBP1 target) levels (SREBP1 [4]): increased; also recorded: elevated | SREBP1 levels (non-cleaved; decrease indicates cleavage and activation) (SREBP1 [4]): SREBP1 levels go down; also recorded: reduce SREBP1 levels | NCEH1 levels (SREBP1 [4]; ECs): higher | effect on inhibitor effects of fatostatin (SREBP1 [4]; PAEC, propranolol with fatostatin, last lane of western blot): able to rescue inhibitor effects of fatostatin | NCEH1-phosphatidylserine interaction [5]: disrupts NCEH1-phosphatidylserine interactions | full length SREBP1 immunoprecipitated (SREBP1-NCEH1 complex; anti-SREBP1 antibody beads): less full length SREBP1 immunoprecipitated | NCEH1 complexed with full length SREBP1 (SREBP1-NCEH1 complex; blotted with NCEH1 antibody): reduced NCEH1 complexed with full length SREBP1 | Tom20 levels (mitophagy) [1]: decreased Tom20 levels; also recorded: robustly induced mitophagy; also recorded: TOM20 levels go down; also recorded: lower | mitophagy induction (TOM20 level) ([1]; PAH patient-derived PAEC): reduced TOM20 levels; also recorded: consistently decreased Tom20 levels in PAH patient cells much more robustly than in normal cells | mitophagy induction (TOM20 level) [1, 7]: reduced TOM20 across all cells | SREBP1 transcriptional targets and transcript levels (RNA-seq) (SREBP1 pathway): activated transcriptional targets, as well as transcript levels of SREBP1 | mitophagy by TEM (bilipid membrane formation around mitochondria) (ECs): promotes bilipid membrane formation around mitochondria more frequently than vehicle treated cells; also recorded: promoted mitophagy | right ventricle systolic pressures (RVSP) (MCT-induced PAH in rats; 10 mg/kg IP for the last 2 of 4 weeks): significantly reduced | MCT-induced arterial wall thickness (MCT-induced PAH in rats; 10 mg/kg IP, lung sections H&E): negated MCT-induced arterial wall thickness | right ventricular systolic pressure (HF-PH mice): significantly decreased

N#CC(C#N)=NNc1cccc(Cl)c1 [CCCP, carbonyl cyanide m-chlorophenylhydrazone]
mitophagy induction (TOM20 level) ([1]; PAH patient-derived PAEC): not observed; also recorded: failed to promote mitophagy | mitophagy induction (TOM20 level) [1, 7]: induced mitophagy; also recorded: promotes mitophagy

papuamide
nuclear translocation of SREBP1 (SREBP1 [3]): promotes nuclear translocation of SREBP1 | activation of non-canonical SREBP1 pathway (SREBP1 [4]; ECs, cell extracts blotted): activate a non-canonical SREBP1 pathway

OC(CNCC(O)C1CCc2cc(F)ccc2O1)C1CCc2cc(F)ccc2O1 (stereo not drawn) [nebivolol]
Tom20 levels (mitophagy) [1]: failed to promote mitophagy
